Biological target: T1, Apical membrane antigen 1 (Plasmodium falciparum, UniProt Q94661)
T1 sequence (Q94661 whole entry): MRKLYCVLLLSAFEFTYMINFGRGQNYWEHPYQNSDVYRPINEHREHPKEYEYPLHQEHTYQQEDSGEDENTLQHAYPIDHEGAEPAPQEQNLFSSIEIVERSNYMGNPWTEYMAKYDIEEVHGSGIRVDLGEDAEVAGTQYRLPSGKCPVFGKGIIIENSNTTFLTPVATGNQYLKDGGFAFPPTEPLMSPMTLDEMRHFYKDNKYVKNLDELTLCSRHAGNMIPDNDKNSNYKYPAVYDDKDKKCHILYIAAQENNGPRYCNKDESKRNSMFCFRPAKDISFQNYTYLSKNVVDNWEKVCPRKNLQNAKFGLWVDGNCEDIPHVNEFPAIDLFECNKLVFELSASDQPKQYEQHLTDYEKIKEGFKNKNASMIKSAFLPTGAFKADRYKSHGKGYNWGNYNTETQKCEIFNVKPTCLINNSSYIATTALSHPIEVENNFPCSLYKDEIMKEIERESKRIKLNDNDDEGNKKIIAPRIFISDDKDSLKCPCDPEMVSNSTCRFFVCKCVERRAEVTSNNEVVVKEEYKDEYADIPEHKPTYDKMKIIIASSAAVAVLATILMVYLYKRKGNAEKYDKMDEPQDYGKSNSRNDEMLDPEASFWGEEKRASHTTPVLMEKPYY
Test: Displacement of 5-FAM-Ahx-ALPLFSKFGSRMH from Plasmodium falciparum AMA1 by fluorescence anisotropy assay

IC50: 24 µM
SMILES: COc1ccc(CN2CC(OCc3ccccc3F)CN(C(=O)CCc3c(C)nc4ncnn4c3C)CC2=O)cc1 (stereo unspecified)

— ChEMBL document CHEMBL4138051, “Antimalarial drug discovery targeting apical membrane antigen 1” (Medchemcomm, 2017)
